# Data: paper PMC8708872, “Discovery of a Novel Template, 7-Substituted 7-Deaza-4′-Thioadenosine Derivatives as Multi-Kinase Inhibitors” (Pharmaceuticals, 2021)
# pIC50, pKi: −log10 of the molar value.
# Key:
# [1] = tested on: human normal dermal fibroblast cells; test: Antiproliferative activity against normal cells; format: cell-based; conditions: cultured human normal primary dermal fibroblast cells; read-out: IC50 growth inhibition, normal dermal fibroblast cells
# cancer cells = test: Antiproliferative activity against cancer cells (six lines, SRB); format: cell-based; conditions: Homo sapiens; range over the six cancer cell lines of Table 1
# Procedure: Human lung cancer cells (A549), colorectal cancer (HCT116) cells, breast cancer cells (MDA-MB-231), liver cancer cells (SK-HEP-1), and prostate cancer cells (PC-3) were purchased from the American Type Culture Collection (Manassas, VA, USA). Human gastric cancer cells (SNU-638) were purchased from the Korean Cell Line Bank (Seoul, Korea). Cells were cultured in medium (Dulbecco’s modified Eagle’s medium for MDA-MB-231 and SK-HEP-1 cells; Roswell Park Memorial Institute 1640 for A549, HCT116, SNU-638, PC-3 cells) supplemented with penicillin-streptomycin and 10% fetal bovine serum at 37 °C in a humidified incubator with 5% carbon dioxide. Cells were seeded at a density of 4–7 × 10^4 cells/mL in 96-well culture plates, and then treated with indicated compounds for 72 h. At the end of the experiment, cells were fixed with 10% trichloroacetic acid (TCA) solution and subjected to sulforhodamine B (SRB) assay to determine cell proliferation. The percentage of cell proliferation was calculated with the following formula:Cell proliferation (%) = 100 × [(A treated − A zero day)/(A control − A zero day)], where A is the average absorbance. The IC50 values were calculated through non-linear regression analysis using TableCurve 2D v5.01 (Systat Software Inc., San Jose, CA, USA). All experiments were performed in triplicate and data shown are representative of two or three independent experiments.
# CYP1A2 = target: T1, CYP1A2 (Homo sapiens, UniProt P05177); test: CYP inhibition assay; format: in vitro ADME; conditions: human liver microsomes
# T1 construct: Human liver microsomes (0.25 mg/mL); from tissue; host or cells: human liver microsomes
# T1 sequence (P05177 whole entry): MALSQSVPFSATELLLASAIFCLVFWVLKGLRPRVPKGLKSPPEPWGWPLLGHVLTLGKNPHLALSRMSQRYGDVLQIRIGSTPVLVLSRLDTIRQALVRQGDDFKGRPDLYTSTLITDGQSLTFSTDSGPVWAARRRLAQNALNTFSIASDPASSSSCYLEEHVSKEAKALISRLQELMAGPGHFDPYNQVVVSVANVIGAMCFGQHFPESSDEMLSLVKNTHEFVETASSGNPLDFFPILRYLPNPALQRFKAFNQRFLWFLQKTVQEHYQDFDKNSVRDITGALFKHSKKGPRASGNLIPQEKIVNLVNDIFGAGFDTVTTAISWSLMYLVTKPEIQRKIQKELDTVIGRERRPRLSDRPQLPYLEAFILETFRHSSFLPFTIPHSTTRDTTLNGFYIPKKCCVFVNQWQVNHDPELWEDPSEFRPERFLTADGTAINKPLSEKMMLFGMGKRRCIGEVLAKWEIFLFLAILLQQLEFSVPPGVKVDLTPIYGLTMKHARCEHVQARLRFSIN
# Procedure: (§1) Human liver microsomes (0.25 mg/mL), 0.1 M phosphate buffer (pH 7.4), a cocktail of five […] substrates (Phenacetin 50 μM, Diclofenac 10 μM, S-mephenytoin 100 μM, Dextromethorphan 5 μM, Midazolam 2.5 μM), and test compound (10 μM concentration) was pre-incubated for 5 min at 37 °C. NADPH generation system solution was added and incubated for 15 min at 37 °C. In order to terminate the reaction, acetonitrile solution containing an internal standard (Terfenadine) was added and centrifuged for 5 min (14,000× g […], 4 °C). The supernatant was injected into the LC-MS/MS system to analyze the metabolites of the substrates simultaneously. Metabolites of each substrate produced during the reaction were analyzed using the Shimadzu Nexera XR system and TSQ vantage (Thermo). Kinetex C18 column (2.1 × 100 mm, 2.6 μm particle size; Phenomenex, USA) was used for HPLC. The mobile phase used contained 0.1% formic acid in distilled water (A) and 0.1% formic acid containing acetonitrile (B). The generated metabolites were quantified using MRM (Multiple Reaction Monitoring) and Xcalibur (version 1.6.1) was used for data analysis.
# CYP2C19 = target: T2, CYP2C19 (Homo sapiens, UniProt P33261); test: CYP inhibition assay; format: in vitro ADME; conditions: human liver microsomes
# T2 construct: Human liver microsomes (0.25 mg/mL); from tissue; host or cells: human liver microsomes
# T2 sequence (P33261 whole entry): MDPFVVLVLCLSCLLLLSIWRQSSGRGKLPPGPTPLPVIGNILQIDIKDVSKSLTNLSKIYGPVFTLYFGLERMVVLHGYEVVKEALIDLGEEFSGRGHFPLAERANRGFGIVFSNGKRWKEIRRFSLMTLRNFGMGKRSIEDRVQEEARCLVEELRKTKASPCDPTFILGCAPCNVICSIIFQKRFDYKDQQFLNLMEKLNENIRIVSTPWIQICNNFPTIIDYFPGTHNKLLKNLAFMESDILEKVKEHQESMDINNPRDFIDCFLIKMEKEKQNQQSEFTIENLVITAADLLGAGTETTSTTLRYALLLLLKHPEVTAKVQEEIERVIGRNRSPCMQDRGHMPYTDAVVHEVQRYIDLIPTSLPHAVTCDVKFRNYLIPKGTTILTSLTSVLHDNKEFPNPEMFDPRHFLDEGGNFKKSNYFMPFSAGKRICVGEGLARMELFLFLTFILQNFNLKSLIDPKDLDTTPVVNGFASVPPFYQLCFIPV
# Procedure: as §1
# CYP2C9 = target: T3, CYP2C9 (Homo sapiens, UniProt P11712); test: CYP inhibition assay; format: in vitro ADME; conditions: human liver microsomes
# T3 construct: Human liver microsomes (0.25 mg/mL); from tissue; host or cells: human liver microsomes
# T3 sequence (P11712 whole entry): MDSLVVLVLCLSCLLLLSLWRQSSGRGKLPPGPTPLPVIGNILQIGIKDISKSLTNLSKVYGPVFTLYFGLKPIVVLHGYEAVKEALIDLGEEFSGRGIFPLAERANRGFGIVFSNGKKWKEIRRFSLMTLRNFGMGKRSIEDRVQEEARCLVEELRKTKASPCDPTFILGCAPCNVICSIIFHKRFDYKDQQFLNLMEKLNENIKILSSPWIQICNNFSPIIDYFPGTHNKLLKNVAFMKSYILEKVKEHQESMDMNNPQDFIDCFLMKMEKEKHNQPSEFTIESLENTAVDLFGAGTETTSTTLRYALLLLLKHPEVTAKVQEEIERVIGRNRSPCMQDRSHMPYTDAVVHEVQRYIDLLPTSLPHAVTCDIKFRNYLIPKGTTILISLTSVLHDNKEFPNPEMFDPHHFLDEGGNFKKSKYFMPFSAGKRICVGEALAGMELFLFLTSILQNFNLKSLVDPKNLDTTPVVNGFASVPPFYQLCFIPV
# Procedure: as §1
# CYP2D6 = target: T4, CYP2D6 (Homo sapiens, UniProt P10635); test: CYP inhibition assay; format: in vitro ADME; conditions: human liver microsomes
# T4 construct: Human liver microsomes (0.25 mg/mL); from tissue; host or cells: human liver microsomes
# T4 sequence (P10635 whole entry): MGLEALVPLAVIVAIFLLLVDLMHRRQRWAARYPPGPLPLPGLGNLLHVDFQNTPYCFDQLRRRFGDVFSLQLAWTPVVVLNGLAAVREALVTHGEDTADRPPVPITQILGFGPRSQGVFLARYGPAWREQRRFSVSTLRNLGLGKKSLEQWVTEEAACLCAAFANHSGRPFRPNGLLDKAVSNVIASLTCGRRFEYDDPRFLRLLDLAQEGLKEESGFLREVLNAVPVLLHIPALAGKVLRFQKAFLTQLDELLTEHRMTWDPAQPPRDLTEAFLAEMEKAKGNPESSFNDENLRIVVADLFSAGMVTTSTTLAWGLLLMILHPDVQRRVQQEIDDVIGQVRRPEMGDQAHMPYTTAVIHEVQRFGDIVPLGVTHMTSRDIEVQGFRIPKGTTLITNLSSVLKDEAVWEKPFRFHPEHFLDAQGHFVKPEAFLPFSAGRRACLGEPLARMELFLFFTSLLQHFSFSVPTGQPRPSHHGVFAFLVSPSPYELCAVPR
# CYP3A4 = target: T5, CYP3A4 (Homo sapiens, UniProt P08684); test: CYP inhibition assay; format: in vitro ADME; conditions: human liver microsomes
# T5 construct: Human liver microsomes (0.25 mg/mL); from tissue; host or cells: human liver microsomes
# T5 sequence (P08684 whole entry): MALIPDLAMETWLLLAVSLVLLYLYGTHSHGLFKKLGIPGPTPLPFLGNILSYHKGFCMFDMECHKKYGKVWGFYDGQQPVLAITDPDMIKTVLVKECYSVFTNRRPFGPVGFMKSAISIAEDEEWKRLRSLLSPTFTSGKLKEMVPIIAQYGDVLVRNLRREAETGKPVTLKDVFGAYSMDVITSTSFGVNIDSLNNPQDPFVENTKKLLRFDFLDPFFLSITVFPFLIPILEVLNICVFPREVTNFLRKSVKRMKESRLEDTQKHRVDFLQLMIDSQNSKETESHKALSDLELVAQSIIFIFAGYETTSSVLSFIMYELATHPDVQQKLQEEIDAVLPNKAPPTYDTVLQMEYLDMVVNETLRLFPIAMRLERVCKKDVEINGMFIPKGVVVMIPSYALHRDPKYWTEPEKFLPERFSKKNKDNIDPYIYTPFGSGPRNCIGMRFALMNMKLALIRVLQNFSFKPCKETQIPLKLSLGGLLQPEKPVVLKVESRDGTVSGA
# DYRK1B = target: T6, DYRK1B (Homo sapiens, UniProt Q9Y463); test: Kinase inhibition profile, KINOMEscan 11-point dose response; format: binding
# T6 construct: purchased Eurofins DiscoverX Corporation
# T6 sequence (Q9Y463 whole entry): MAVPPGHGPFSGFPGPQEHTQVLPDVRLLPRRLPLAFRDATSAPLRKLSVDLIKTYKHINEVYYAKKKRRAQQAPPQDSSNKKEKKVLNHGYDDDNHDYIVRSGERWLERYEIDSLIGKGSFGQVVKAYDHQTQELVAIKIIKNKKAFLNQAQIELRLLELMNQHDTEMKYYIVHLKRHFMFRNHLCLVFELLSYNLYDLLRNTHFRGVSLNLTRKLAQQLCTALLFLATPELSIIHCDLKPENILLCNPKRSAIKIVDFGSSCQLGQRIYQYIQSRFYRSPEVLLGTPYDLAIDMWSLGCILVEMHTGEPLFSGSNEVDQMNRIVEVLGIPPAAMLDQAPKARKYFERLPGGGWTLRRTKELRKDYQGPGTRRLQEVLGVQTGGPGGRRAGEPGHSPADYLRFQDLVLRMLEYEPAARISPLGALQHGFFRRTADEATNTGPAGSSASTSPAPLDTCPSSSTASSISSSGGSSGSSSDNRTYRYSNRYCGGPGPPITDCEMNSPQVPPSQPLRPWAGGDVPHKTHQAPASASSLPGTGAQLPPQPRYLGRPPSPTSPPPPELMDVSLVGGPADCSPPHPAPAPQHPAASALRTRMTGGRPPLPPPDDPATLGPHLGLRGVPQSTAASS
smiles,measurement,setting,value
"C#Cc1cn([C@@H]2S[C@H](CO)[C@@H](O)[C@H]2O)c2ncnc(N)c12 [Compound 1g, (2R,3R,4S,5R)-2-(4-Amino-5-ethynyl-7H-pyrrolo[2,3-d]pyrimidin-7-yl)-5-(hydroxymethyl)tetrahydrothiophene-3,4-diol]",pIC50,[1],6.82
same,pIC50,cancer cells,7.22 to 8.40
same,pIC50,CYP1A2,< 4.70
same,pIC50,CYP2C19,< 4.70
same,pIC50,CYP2C9,< 4.70
same,pIC50,CYP2D6,< 4.70
same,pIC50,CYP3A4,< 4.70
same,pIC50,DYRK1B; 11-point 3-fold serial dilution,7.48
same,pKi,DYRK1B; by Cheng-Prusoff equation,7.48
